In PMC5218480 (PLoS ONE, 2017):

System: MV-4-11 cells
Test: Gene expression microarray analysis (Affymetrix PrimeView) and GSEA
Format: cell-based, human
Set-up: RFU PODN (11730768_x_at) / Fold change /veh PODN (11730768_x_at) / RFU LINC00158 (11744669_a_at) / Fold change /veh LINC00158 (11744669_a_at) / RFU DUSP10 (11751237_a_at) / Fold change /veh DUSP10 (11751237_a_at) / RFU ID3 (11757404_x_at) / Fold change /veh ID3 (11757404_x_at) / RFU PLEKHG5 (11737974_s_at) / Fold change /veh PLEKHG5 (11737974_s_at) / RFU LRRC4B (11730491_at) / Fold change /veh LRRC4B (11730491_at) / RFU GIMAP4 (11747438_a_at) / Fold change /veh GIMAP4 (11747438_a_at) / RFU KRT8 (11758183_x_at) / Fold change /veh KRT8 (11758183_x_at) / RFU CNN1 (11734310_a_at) / Fold change /veh CNN1 (11734310_a_at) / RFU VPS37D (11726825_at) / Fold change /veh VPS37D (11726825_at) / RFU C10orf10 (11716522_x_at) / Fold change /veh C10orf10 (11716522_x_at) / RFU KIR2DL2 /// KIR2DL4 /// KIR2DL5A /// KIR2DL5B /// KIR2DS1 /// KIR2DS2 /// KIR2DS3 /// KIR2DS4 /// KIR3DL3 /// KIR3DL3 /// KIR3DS1 (11738374_at) / Fold change /veh KIR2DL2 /// KIR2DL4 /// KIR2DL5A /// KIR2DL5B /// KIR2DS1 /// KIR2DS2 /// KIR2DS3 /// KIR2DS4 /// KIR3DL3 /// KIR3DL3 /// KIR3DS1 (11738374_at) / RFU C1QL1 (11718748_at) / Fold change /veh C1QL1 (11718748_at) / RFU TMPRSS4 (11747572_a_at) / Fold change /veh TMPRSS4 (11747572_a_at) / RFU HAMP (11756126_x_at) / Fold change /veh HAMP (11756126_x_at) / RFU RNFT2 (11725882_a_at) / Fold change /veh RNFT2 (11725882_a_at) / RFU NR4A2 (11747474_a_at) / Fold change /veh NR4A2 (11747474_a_at) / RFU ABCC12 (11746883_a_at) / Fold change /veh ABCC12 (11746883_a_at) / RFU TMEM136 (11760407_x_at) / Fold change /veh TMEM136 (11760407_x_at) / RFU CLDN22 /// WWC2 (11732394_at) / Fold change /veh CLDN22 /// WWC2 (11732394_at) / RFU HLA-DPB1 (11760878_x_at) / Fold change /veh HLA-DPB1 (11760878_x_at) / RFU SPINT1 (11716480_a_at) / Fold change /veh SPINT1 (11716480_a_at) / RFU GAP43 (11754022_s_at) / Fold change /veh GAP43 (11754022_s_at) / RFU A4GNT (11735810_at) / Fold change /veh A4GNT (11735810_at) / RFU PRB3 (11715151_x_at) / Fold change /veh PRB3 (11715151_x_at) / RFU TUBB4B (11761932_at) / Fold change /veh TUBB4B (11761932_at) / RFU CAPN14 (11732068_a_at) / Fold change /veh CAPN14 (11732068_a_at) / RFU TMCC2 (11721928_a_at) / Fold change /veh TMCC2 (11721928_a_at) / RFU IRGQ (11745062_a_at) / Fold change /veh IRGQ (11745062_a_at) / RFU FAM174B (11720279_a_at) / Fold change /veh FAM174B (11720279_a_at) / RFU TMPRSS4 (11748680_a_at) / Fold change /veh TMPRSS4 (11748680_a_at) / RFU FAM212B (11763350_a_at) / Fold change /veh FAM212B (11763350_a_at) / RFU PLEKHG5 (11743358_a_at) / Fold change /veh PLEKHG5 (11743358_a_at) / RFU ZSCAN30 (11745921_a_at) / Fold change /veh ZSCAN30 (11745921_a_at) / RFU CMKLR1 (11741424_a_at) / Fold change /veh CMKLR1 (11741424_a_at) / RFU LOC101060620 /// MAPK8IP1 (11723275_at) / Fold change /veh LOC101060620 /// MAPK8IP1 (11723275_at) / RFU SPTSSB (11747773_x_at) / Fold change /veh SPTSSB (11747773_x_at) / RFU PRSS12 (11739890_at) / Fold change /veh PRSS12 (11739890_at) / RFU BIN1 (11741810_x_at) / Fold change /veh BIN1 (11741810_x_at) / RFU WNT11 (11732464_a_at) / Fold change /veh WNT11 (11732464_a_at) / RFU C10orf10 (11716521_a_at) / Fold change /veh C10orf10 (11716521_a_at) / RFU C5orf56 (11738089_at) / Fold change /veh C5orf56 (11738089_at) / RFU CYB561 (11721691_x_at) / Fold change /veh CYB561 (11721691_x_at) / RFU ANKRD19P (11752326_a_at) / Fold change /veh ANKRD19P (11752326_a_at) / RFU OR2T12 /// OR2T33 /// OR2T8 (11738714_s_at) / Fold change /veh OR2T12 /// OR2T33 /// OR2T8 (11738714_s_at) / RFU VCAN (11748164_a_at) / Fold change /veh VCAN (11748164_a_at) / RFU JSRP1 (11732532_at) / Fold change /veh JSRP1 (11732532_at) / RFU KRTAP10-11 (11738290_x_at) / Fold change /veh KRTAP10-11 (11738290_x_at) / RFU MYO3A (11730013_a_at) / Fold change /veh MYO3A (11730013_a_at) / RFU EBF3 (11725865_a_at) / Fold change /veh EBF3 (11725865_a_at) / RFU CAMK2N1 (11719241_x_at) / Fold change /veh CAMK2N1 (11719241_x_at) / RFU C5orf56 (11738088_a_at) / Fold change /veh C5orf56 (11738088_a_at) / RFU OLFML3 (11715873_a_at) / Fold change /veh OLFML3 (11715873_a_at) / RFU LOC100653217 /// NTM (11731650_a_at) / Fold change /veh LOC100653217 /// NTM (11731650_a_at) / RFU MAPK11 (11762145_a_at) / Fold change /veh MAPK11 (11762145_a_at) / RFU FIZ1 (11724087_x_at) / Fold change /veh FIZ1 (11724087_x_at) / RFU OASL (11726364_x_at) / Fold change /veh OASL (11726364_x_at) / RFU SOX15 (11748057_x_at) / Fold change /veh SOX15 (11748057_x_at) / RFU CD79A (11719716_a_at) / Fold change /veh CD79A (11719716_a_at) / RFU HIST1H1D (11736915_at) / Fold change /veh HIST1H1D (11736915_at) / RFU CASKIN2 (11723855_a_at) / Fold change /veh CASKIN2 (11723855_a_at) / RFU LOC730098 (11760151_x_at) / Fold change /veh LOC730098 (11760151_x_at) / RFU OR4N2 (11742367_at) / Fold change /veh OR4N2 (11742367_at) / RFU PRRT2 (11749266_a_at) / Fold change /veh PRRT2 (11749266_a_at) / RFU SNX32 (11753110_a_at) / Fold change /veh SNX32 (11753110_a_at) / RFU CDHR5 (11726645_a_at) / Fold change /veh CDHR5 (11726645_a_at) / RFU RCAN1 (11760418_a_at) / Fold change /veh RCAN1 (11760418_a_at) / RFU FAM167A (11723789_a_at) / Fold change /veh FAM167A (11723789_a_at) / RFU FAM26E (11764081_at) / Fold change /veh FAM26E (11764081_at) / RFU ISYNA1 (11749810_s_at) / Fold change /veh ISYNA1 (11749810_s_at) / RFU ACY1 (11761880_at) / Fold change /veh ACY1 (11761880_at) / RFU 11764098_at / Fold change /veh 11764098_at / RFU SAMD14 (11745864_x_at) / Fold change /veh SAMD14 (11745864_x_at) / RFU NPB (11741838_a_at) / Fold change /veh NPB (11741838_a_at) / RFU TMPRSS6 (11731388_a_at) / Fold change /veh TMPRSS6 (11731388_a_at) / RFU KRTAP10-2 (11738614_at) / Fold change /veh KRTAP10-2 (11738614_at) / RFU ARHGAP8 /// PRR5-ARHGAP8 (11727945_x_at) / Fold change /veh ARHGAP8 /// PRR5-ARHGAP8 (11727945_x_at) / RFU KRTAP5-7 /// NADSYN1 (11734609_at) / Fold change /veh KRTAP5-7 /// NADSYN1 (11734609_at) / RFU RASL12 (11751679_a_at) / Fold change /veh RASL12 (11751679_a_at) / RFU CDKN2B (11736163_a_at) / Fold change /veh CDKN2B (11736163_a_at) / RFU PRF1 (11729649_at) / Fold change /veh PRF1 (11729649_at) / RFU, ZNF638 /// ZNF638-IT1 / Fold change vs veh, ZNF638 /// ZNF638-IT1 / RFU, PANK3 / Fold change vs veh, PANK3 / RFU, SH3YL1 / Fold change vs veh, SH3YL1 / RFU, ZEB2 / Fold change vs veh, ZEB2 / RFU, NRIP1 / Fold change vs veh, NRIP1 / RFU, PTTG1IP / Fold change vs veh, PTTG1IP / RFU, CAPN2 / Fold change vs veh, CAPN2 / RFU, MED14 / Fold change vs veh, MED14 / RFU, SNORA58 / Fold change vs veh, SNORA58 / RFU, C1orf63 / Fold change vs veh, C1orf63 / RFU, LRRFIP1 / Fold change vs veh, LRRFIP1 / RFU, NDUFAF7 / Fold change vs veh, NDUFAF7 / RFU, SLC12A2 / Fold change vs veh, SLC12A2 / RFU, IBTK / Fold change vs veh, IBTK / RFU, ESF1 / Fold change vs veh, ESF1 / Fold change vs veh, TMEM50B / RFU, TAOK1 / Fold change vs veh, TAOK1 / RFU, ACBD3 / Fold change vs veh, ACBD3 / RFU, TMA16 / Fold change vs veh, TMA16 / RFU, RWDD3 / Fold change vs veh, RWDD3 / RFU, BCAT1 / Fold change vs veh, BCAT1 / RFU, EDEM3 / Fold change vs veh, EDEM3 / RFU, TMEM33 / Fold change vs veh, TMEM33 / RFU, WDR75 / Fold change vs veh, WDR75 / RFU, AHCTF1 / Fold change vs veh, AHCTF1 / RFU, TFRC / Fold change vs veh, TFRC / RFU, ZDHHC17 / Fold change vs veh, ZDHHC17 / RFU, NOM1 / Fold change vs veh, NOM1 / RFU, ARL8B / Fold change vs veh, ARL8B / RFU, ZBTB11 / Fold change vs veh, ZBTB11 / RFU, TAMM41 / Fold change vs veh, TAMM41 / RFU, KIAA1704 /// LOC100996395 / Fold change vs veh, KIAA1704 /// LOC100996395 / RFU, ING1 / Fold change vs veh, ING1 / RFU, TRMT61B / Fold change vs veh, TRMT61B / RFU, FUBP3 / Fold change vs veh, FUBP3 / RFU, TP53 / Fold change vs veh, TP53 / RFU, TNKS2 / Fold change vs veh, TNKS2 / RFU, ZFP14 / Fold change vs veh, ZFP14 / RFU, ACTR2 / Fold change vs veh, ACTR2 / RFU, PPP3R1 / Fold change vs veh, PPP3R1 / RFU, PIK3R1 / Fold change vs veh, PIK3R1 / RFU, HNRNPA1 / Fold change vs veh, HNRNPA1 / RFU, RNF170 / Fold change vs veh, RNF170 / RFU, ZNF28 / Fold change vs veh, ZNF28 / RFU, RNGTT / Fold change vs veh, RNGTT / RFU, OGT / Fold change vs veh, OGT / RFU, BRD1 / Fold change vs veh, BRD1 / RFU, MARS / Fold change vs veh, MARS / RFU, ZNF655 / Fold change vs veh, ZNF655 / RFU, FAHD1 / Fold change vs veh, FAHD1 / RFU, BDP1 / Fold change vs veh, BDP1 / RFU, LRRCC1 / Fold change vs veh, LRRCC1 / RFU, ARID1A / Fold change vs veh, ARID1A / RFU, ZNF146 / Fold change vs veh, ZNF146 / RFU, ZNF330 / Fold change vs veh, ZNF330 / RFU, GPN3 / Fold change vs veh, GPN3 / RFU, C9orf123 / Fold change vs veh, C9orf123 / RFU, N4BP2L2 / Fold change vs veh, N4BP2L2 / RFU, ARFIP1 / Fold change vs veh, ARFIP1 / RFU, FAM179B / Fold change vs veh, FAM179B / RFU, BCL10 / Fold change vs veh, BCL10 / RFU, UHRF1BP1L / Fold change vs veh, UHRF1BP1L / RFU, BET1 / Fold change vs veh, BET1 / RFU, CNOT2 / Fold change vs veh, CNOT2 / RFU, ZNF268 / Fold change vs veh, ZNF268 / Fold change vs veh, ZNF507 / RFU, DGCR2 / Fold change vs veh, DGCR2 / RFU, WDSUB1 / Fold change vs veh, WDSUB1 / Fold change vs veh, HSP90B1 /// MIR3652 / RFU, ADSS / Fold change vs veh, ADSS / RFU, GK / Fold change vs veh, GK / RFU, ZNF148 / Fold change vs veh, ZNF148 / RFU, TAF9 / Fold change vs veh, TAF9 / RFU, SLC1A5 / Fold change vs veh, SLC1A5 / RFU, SLMO2 / Fold change vs veh, SLMO2 / RFU, ABCC4 / Fold change vs veh, ABCC4 / RFU, LOC101060439 /// RAP1B / Fold change vs veh, LOC101060439 /// RAP1B / RFU, RFX7 / Fold change vs veh, RFX7 / RFU, GTPBP10 / Fold change vs veh, GTPBP10 / RFU, CNEP1R1 / Fold change vs veh, CNEP1R1 / RFU, BIVM-ERCC5 /// ERCC5 / Fold change vs veh, BIVM-ERCC5 /// ERCC5 / RFU, ILF3 / Fold change vs veh, ILF3 / RFU 11762660_at / Fold change /veh 11762660_at / RFU VCAN (11757783_s_at) / Fold change /veh VCAN (11757783_s_at) / RFU DDX43 (11728927_at) / Fold change /veh DDX43 (11728927_at) / RFU KRT8 (11758188_x_at) / Fold change /veh KRT8 (11758188_x_at) / RFU NKD1 (11759106_at) / Fold change /veh NKD1 (11759106_at) / RFU SRD5A1 (11742802_a_at) / Fold change /veh SRD5A1 (11742802_a_at) / RFU TPSAB1 /// TPSB2 (11721975_s_at) / Fold change /veh TPSAB1 /// TPSB2 (11721975_s_at) / RFU GSTM3 (11746129_a_at) / Fold change /veh GSTM3 (11746129_a_at) / RFU IL23R (11737362_x_at) / Fold change /veh IL23R (11737362_x_at) / RFU TMEM51 (11727254_a_at) / Fold change /veh TMEM51 (11727254_a_at) / RFU PIWIL2 (11732686_x_at) / Fold change /veh PIWIL2 (11732686_x_at) / RFU ORM1 (11744905_x_at) / Fold change /veh ORM1 (11744905_x_at) / RFU CCDC152 (11743942_at) / Fold change /veh CCDC152 (11743942_at) / RFU ECM1 (11717891_a_at) / Fold change /veh ECM1 (11717891_a_at) / RFU IL23R (11748794_a_at) / Fold change /veh IL23R (11748794_a_at) / RFU TNFAIP8L3 (11732012_x_at) / Fold change /veh TNFAIP8L3 (11732012_x_at) / RFU MBOAT4 (11741988_at) / Fold change /veh MBOAT4 (11741988_at) / RFU 11764193_at / Fold change /veh 11764193_at / RFU TMEM53 (11763286_at) / Fold change /veh TMEM53 (11763286_at) / RFU MAGEB2 (11727129_at) / Fold change /veh MAGEB2 (11727129_at) / RFU TMEM200A (11744735_a_at) / Fold change /veh TMEM200A (11744735_a_at) / RFU CCDC152 (11751479_a_at) / Fold change /veh CCDC152 (11751479_a_at) / RFU FAM211A (11726209_a_at) / Fold change /veh FAM211A (11726209_a_at) / RFU RGS16 (11746705_a_at) / Fold change /veh RGS16 (11746705_a_at) / RFU VCAN (11755009_s_at) / Fold change /veh VCAN (11755009_s_at) / RFU RHOB (11743442_s_at) / Fold change /veh RHOB (11743442_s_at) / RFU RGS16 (11720943_a_at) / Fold change /veh RGS16 (11720943_a_at) / RFU RGS16 (11720944_at) / Fold change /veh RGS16 (11720944_at) / RFU, VPS4B / Fold change vs veh, VPS4B / RFU, CREB1 / Fold change vs veh, CREB1 / RFU, DNAJC13 / Fold change vs veh, DNAJC13 / RFU, GNAQ / Fold change vs veh, GNAQ / RFU, CDK5R1 / Fold change vs veh, CDK5R1 / RFU, ZRANB3 / Fold change vs veh, ZRANB3 / RFU, CUL4A / Fold change vs veh, CUL4A / RFU, CCNY / Fold change vs veh, CCNY / RFU, UFL1 / Fold change vs veh, UFL1 / RFU, COG3 / Fold change vs veh, COG3 / RFU, DIAPH2 / Fold change vs veh, DIAPH2 / RFU, SKA2 / Fold change vs veh, SKA2 / RFU, AFF3 / Fold change vs veh, AFF3 / RFU, LMF1 / Fold change vs veh, LMF1 / RFU, IPO11 / Fold change vs veh, IPO11 / RFU, DFFB / Fold change vs veh, DFFB / RFU, FOXP1 / Fold change vs veh, FOXP1 / RFU, CARD8 / Fold change vs veh, CARD8 / RFU, STRN3 / Fold change vs veh, STRN3 / RFU, ADK / Fold change vs veh, ADK / RFU, RASSF2 / Fold change vs veh, RASSF2 / RFU, WIPF1 / Fold change vs veh, WIPF1 / RFU, LARP1B / Fold change vs veh, LARP1B / RFU, RASA1 / Fold change vs veh, RASA1 / RFU, RB1 / Fold change vs veh, RB1 / RFU, PPFIA1 / Fold change vs veh, PPFIA1 / RFU, MAT2A / Fold change vs veh, MAT2A / RFU, CCT5 / Fold change vs veh, CCT5 / RFU, WDR92 / Fold change vs veh, WDR92 / RFU, CUX1 / Fold change vs veh, CUX1 / RFU, TTC7A / Fold change vs veh, TTC7A / RFU, TMEM135 / Fold change vs veh, TMEM135 / RFU, DEPTOR / Fold change vs veh, DEPTOR / RFU, CPM / Fold change vs veh, CPM / RFU, DNAJB6 / Fold change vs veh, DNAJB6 / RFU, CACNA2D3 / Fold change vs veh, CACNA2D3 / RFU, DTX4 / Fold change vs veh, DTX4 / RFU, TFCP2 / Fold change vs veh, TFCP2 / RFU, GMCL1 /// GMCL1P1 / Fold change vs veh, GMCL1 /// GMCL1P1 / RFU, AEBP2 / Fold change vs veh, AEBP2 / RFU, SNHG1 /// SNORD22 /// SNORD25 /// SNORD26 /// SNORD27 /// SNORD28 /// SNORD29 /// SNORD31 / Fold change vs veh, SNHG1 /// SNORD22 /// SNORD25 /// SNORD26 /// SNORD27 /// SNORD28 /// SNORD29 /// SNORD31 / Fold change (Aza/veh), C12orf56 (ProbeSet 11735607_a_at) / Fold change (ACY-1035/veh), C12orf56 (ProbeSet 11735607_a_at) / Fold change (Aza/veh), FGFR1OP (ProbeSet 11751329_s_at) / Fold change (ACY-1035/veh), FGFR1OP (ProbeSet 11751329_s_at) / Fold change (Aza/veh), VPS36 (ProbeSet 11739960_a_at) / Fold change (ACY-1035/veh), VPS36 (ProbeSet 11739960_a_at) / RFU SYPL1 (11715823_x_at) / Fold change /veh SYPL1 (11715823_x_at) / RFU IGFBP7 (11715501_s_at) / Fold change /veh IGFBP7 (11715501_s_at) / RFU REEP3 (11722064_at) / Fold change /veh REEP3 (11722064_at) / RFU IGLL1 (11728026_x_at) / Fold change /veh IGLL1 (11728026_x_at): dose or concentration left out as unconfirmed
Conditions: ProbeSet 11758440_s_at; LIST B

## Nc1ccc(-c2cccs2)cc1NC(=O)c1ccc2c(c1)cc(C1CC1)n2CCN1CCOCC1 [ACY-1035]
  RFU, RFX7: 47.76 RFU
